These results are taken from ChEMBL document CHEMBL5726197, “Oxoazetidine derivatives, process for the preparation thereof and use thereof in human medicine and in cosmetics” (2017).

Assay [1] has as its target Melanocyte-stimulating hormone receptor (Homo sapiens, UniProt Q01726). The assay can be described thus: (§1) Transactivation Assay: In the presence of an activator (agonist), the melanocortin receptor will activate the cAMP pathway which, via the CRE-Luc vector, will result in the synthesis of luciferase. After the addition of a lysis buffer containing a luminescent substrate for luciferase, it will be possible to measure the luminescence proportional to the degree of activation or of inhibition of the receptor. The products are solubilized at 10 mM in DMSO. They are tested in the form of dose-response at a final DMSO concentration of 0.1%. The range comprising 10 points and one zero begins at 10 μM with 4-fold dilutions. For testing agonists, the products are tested alone. For determining the behaviour of antagonists, the products of interest are tested in the presence of 1 nM NDP-MSH (reference agonist). The cells are seeded at a rate of 5000 cells per well (384 well plate) in serum-free DMEM medium, and incubated overnight at 37° C., 5% CO2.The products and the reference ligand (NDP-MSH) are added the following day, and the plates are again incubated for 6 h at 37° C., 5% CO2. After the addition of lysis buffer containing luciferin, the plates are read on a Top-Count instrument. The results are standardized as % activity using the 100% (cells+NDP-MSH at 10 nM) and 0% (cells alone) controls. An EC50 is calculated for each product using the XLFit software. The results are given in nM. […].

A further assay deals with Melanocortin receptor 4 (Homo sapiens, UniProt P32245). The assay is described as §1.
Chain of Melanocortin receptor 4 (P32245 whole entry): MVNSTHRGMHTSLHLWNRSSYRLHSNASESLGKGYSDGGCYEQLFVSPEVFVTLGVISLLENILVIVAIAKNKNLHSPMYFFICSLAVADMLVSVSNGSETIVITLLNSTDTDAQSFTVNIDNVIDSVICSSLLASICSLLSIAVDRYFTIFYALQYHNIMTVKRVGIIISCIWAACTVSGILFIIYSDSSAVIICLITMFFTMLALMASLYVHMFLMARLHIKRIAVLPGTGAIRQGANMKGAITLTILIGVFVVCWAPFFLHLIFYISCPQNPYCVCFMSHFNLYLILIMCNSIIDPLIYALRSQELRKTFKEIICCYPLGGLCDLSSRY

Chain of Melanocyte-stimulating hormone receptor (Q01726 whole entry): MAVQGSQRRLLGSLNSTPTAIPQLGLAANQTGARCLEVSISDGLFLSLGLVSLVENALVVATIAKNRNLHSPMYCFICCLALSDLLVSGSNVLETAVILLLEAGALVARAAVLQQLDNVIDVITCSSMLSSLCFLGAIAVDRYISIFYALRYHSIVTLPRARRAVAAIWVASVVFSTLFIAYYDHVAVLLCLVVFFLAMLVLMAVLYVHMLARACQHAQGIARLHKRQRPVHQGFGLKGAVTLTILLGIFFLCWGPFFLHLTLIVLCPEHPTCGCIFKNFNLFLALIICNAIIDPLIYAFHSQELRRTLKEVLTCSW

Consider `CCCCCC1(c2ccccc2OC)CN(C(=O)[C@@H](Cc2ccc(OC)cc2)NC(=O)CCc2c[nH]cn2)C1`, for which the concentration for a half-maximal effect (EC50) is 0.06 µM in assay [1] and 0.03 µM on Melanocortin receptor 4.

Usually EC50 stands for the midpoint of the concentration-response curve.
